Results taken from ChEMBL document CHEMBL3745672, “Novel compounds reducing IRS-1 serine phosphorylation for treatment of diabetes” (Bioorg Med Chem Lett, 2016).

Tests used:
[1] = molecular target: T1, Mitogen-activated protein kinase 8 (Homo sapiens, UniProt P45983); assay: Inhibition of JNK1 (unknown origin) expressed in HEK293 cells assessed as anisomycin-induced JNK phosphorylation at 10 uM incubated for 30 mins by Western blot analysis relative to anisomycin; format: cell-based; design: scale not given: the % may be the effect or the level left
[2] = system: HEK293; assay: Cytotoxicity against HEK293 after 24 hrs by CellTiter-Glo luminescent cell viability assay; format: cell-based; conditions: Homo sapiens, HEK293, 24 h
[3] = molecular target: Tyrosine-protein kinase SYK (Homo sapiens) (UniProt P43405); assay: Inhibition of SYK (unknown origin) at 10 uM
[4] = molecular target: T1, Mitogen-activated protein kinase 8; assay: Inhibition of JNK1 (unknown origin) at 10 uM
[5] = molecular target: Tyrosine-protein kinase ABL1 (Homo sapiens) (UniProt P00519); assay: Inhibition of ABL (unknown origin) at 10 uM
[6] = molecular target: Mast/stem cell growth factor receptor Kit (Homo sapiens) (UniProt P10721); assay: Inhibition of cKIT (unknown origin) at 10 uM
[7] = molecular target: T2, Interleukin-1 receptor-associated kinase 4 (Homo sapiens) (UniProt Q9NWZ3); assay: Inhibition of IRAK4 (unknown origin) at 10 uM
T2 sequence (whole entry): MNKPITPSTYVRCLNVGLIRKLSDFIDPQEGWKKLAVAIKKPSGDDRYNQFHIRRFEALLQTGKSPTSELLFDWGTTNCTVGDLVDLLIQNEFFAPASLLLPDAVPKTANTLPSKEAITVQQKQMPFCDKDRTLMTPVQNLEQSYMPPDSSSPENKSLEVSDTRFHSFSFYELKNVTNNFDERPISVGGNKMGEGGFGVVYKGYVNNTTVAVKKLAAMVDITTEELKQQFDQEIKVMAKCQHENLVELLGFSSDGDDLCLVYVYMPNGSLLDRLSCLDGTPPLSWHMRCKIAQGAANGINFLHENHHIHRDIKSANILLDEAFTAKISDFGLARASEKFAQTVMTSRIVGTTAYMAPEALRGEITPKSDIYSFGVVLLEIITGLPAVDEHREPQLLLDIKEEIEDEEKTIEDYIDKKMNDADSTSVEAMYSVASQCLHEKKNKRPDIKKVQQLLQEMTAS

[8] = molecular target: Serine/threonine-protein kinase PAK 1 (Homo sapiens) (UniProt Q13153); assay: Inhibition of PAK1 (unknown origin) at 10 uM
[9] = molecular target: Protein kinase C alpha type (Homo sapiens) (UniProt P17252); assay: Inhibition of PKCalpha (unknown origin) at 10 uM
[10] = molecular target: Fibroblast growth factor receptor 3 (Homo sapiens) (UniProt P22607); assay: Inhibition of FGFR3 (unknown origin) at 10 uM
[11] = molecular target: Platelet-derived growth factor receptor beta (Homo sapiens) (UniProt P09619); assay: Inhibition of PDGFRbeta (unknown origin) at 10 uM
[12] = molecular target: Tyrosine-protein kinase receptor UFO (Homo sapiens) (UniProt P30530); assay: Inhibition of AXL (unknown origin) at 10 uM
[13] = molecular target: T1, Mitogen-activated protein kinase 8; assay: Inhibition of JNK1 (unknown origin) expressed in HEK293 cells assessed as anisomycin-induced IRS-1(Ser307) phosphorylation at 10 uM incubated for 30 mins by Western blot analysis relative to anisomycin; format: cell-based; design: scale not given: the % may be the effect or the level left
[14] = molecular target: Mitogen-activated protein kinase 3 (Homo sapiens) (UniProt P27361); assay: Inhibition of ERK1 (unknown origin) at 10 uM
[15] = molecular target: Insulin receptor (Homo sapiens) (UniProt P06213); assay: Inhibition of INSR (unknown origin) at 10 uM
[16] = molecular target: T1, Mitogen-activated protein kinase 8; assay: Inhibition of JNK1 (unknown origin)
[17] = molecular target: Rho-associated protein kinase 2 (Homo sapiens) (UniProt O75116); assay: Inhibition of ROCK2 (unknown origin) at 10 uM
[18] = molecular target: Proto-oncogene tyrosine-protein kinase Src (Homo sapiens) (UniProt P12931); assay: Inhibition of SRC (unknown origin) at 10 uM
[19] = molecular target: Receptor-type tyrosine-protein kinase FLT3 (Homo sapiens) (UniProt P36888); assay: Inhibition of FLT3 (unknown origin) at 10 uM
[20] = molecular target: Hepatocyte growth factor receptor (Homo sapiens) (UniProt P08581); assay: Inhibition of cMET (unknown origin) at 10 uM
[21] = molecular target: Death-associated protein kinase 3 (Homo sapiens) (UniProt O43293); assay: Inhibition of DAPK3 (unknown origin) at 10 uM
[22] = molecular target: T3, Tyrosine-protein kinase JAK3 (Homo sapiens) (UniProt P52333); assay: Inhibition of JAK3 (unknown origin) at 10 uM
T3 sequence (whole entry): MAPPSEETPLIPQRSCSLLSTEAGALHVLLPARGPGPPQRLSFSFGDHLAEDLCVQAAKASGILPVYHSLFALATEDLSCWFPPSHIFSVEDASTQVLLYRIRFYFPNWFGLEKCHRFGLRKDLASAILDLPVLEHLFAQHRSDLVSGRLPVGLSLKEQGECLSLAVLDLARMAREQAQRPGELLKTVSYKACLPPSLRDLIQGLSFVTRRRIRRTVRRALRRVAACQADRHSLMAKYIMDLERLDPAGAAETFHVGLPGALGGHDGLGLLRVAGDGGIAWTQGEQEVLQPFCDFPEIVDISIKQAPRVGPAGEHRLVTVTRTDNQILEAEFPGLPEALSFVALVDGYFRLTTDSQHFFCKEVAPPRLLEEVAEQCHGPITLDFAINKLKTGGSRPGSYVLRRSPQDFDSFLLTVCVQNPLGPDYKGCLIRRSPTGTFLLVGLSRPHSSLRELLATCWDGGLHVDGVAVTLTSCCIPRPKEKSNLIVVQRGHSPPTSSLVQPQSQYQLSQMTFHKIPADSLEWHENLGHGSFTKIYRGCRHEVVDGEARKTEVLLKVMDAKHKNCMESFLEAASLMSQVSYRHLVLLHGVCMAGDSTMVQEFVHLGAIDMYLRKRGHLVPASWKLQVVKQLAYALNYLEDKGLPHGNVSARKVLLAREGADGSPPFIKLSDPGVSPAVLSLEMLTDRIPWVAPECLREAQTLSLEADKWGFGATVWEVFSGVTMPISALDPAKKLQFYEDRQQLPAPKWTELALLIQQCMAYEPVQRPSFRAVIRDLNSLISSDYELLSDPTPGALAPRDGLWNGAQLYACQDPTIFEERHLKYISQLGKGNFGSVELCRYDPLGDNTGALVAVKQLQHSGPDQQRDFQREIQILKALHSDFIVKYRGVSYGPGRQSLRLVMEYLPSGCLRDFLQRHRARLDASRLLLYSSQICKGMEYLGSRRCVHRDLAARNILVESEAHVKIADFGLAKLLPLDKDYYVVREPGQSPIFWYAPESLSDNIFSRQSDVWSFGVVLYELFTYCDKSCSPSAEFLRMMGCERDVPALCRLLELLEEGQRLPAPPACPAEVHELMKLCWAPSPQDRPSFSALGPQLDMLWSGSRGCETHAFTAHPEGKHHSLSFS

[23] = molecular target: Serine/threonine-protein kinase PAK 4 (Homo sapiens) (UniProt O96013); assay: Inhibition of PAK4 (unknown origin) at 10 uM
Chain of Serine/threonine-protein kinase PAK 4 (Homo sapiens) (O96013 whole entry, looked up): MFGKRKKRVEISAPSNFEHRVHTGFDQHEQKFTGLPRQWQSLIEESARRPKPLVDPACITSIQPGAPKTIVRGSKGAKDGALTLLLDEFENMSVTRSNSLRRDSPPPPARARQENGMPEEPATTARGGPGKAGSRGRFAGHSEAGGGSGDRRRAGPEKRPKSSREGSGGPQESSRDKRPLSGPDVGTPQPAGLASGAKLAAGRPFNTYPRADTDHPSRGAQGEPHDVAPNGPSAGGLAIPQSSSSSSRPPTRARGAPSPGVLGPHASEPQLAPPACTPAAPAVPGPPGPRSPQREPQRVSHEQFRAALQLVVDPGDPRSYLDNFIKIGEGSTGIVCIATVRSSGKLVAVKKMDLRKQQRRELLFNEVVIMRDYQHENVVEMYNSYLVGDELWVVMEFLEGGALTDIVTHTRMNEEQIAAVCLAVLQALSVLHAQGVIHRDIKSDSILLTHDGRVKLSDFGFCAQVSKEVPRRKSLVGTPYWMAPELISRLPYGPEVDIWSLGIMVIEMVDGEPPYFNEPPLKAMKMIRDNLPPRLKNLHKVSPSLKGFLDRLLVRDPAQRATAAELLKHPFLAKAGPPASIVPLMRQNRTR

T1 sequence (P45983 whole entry): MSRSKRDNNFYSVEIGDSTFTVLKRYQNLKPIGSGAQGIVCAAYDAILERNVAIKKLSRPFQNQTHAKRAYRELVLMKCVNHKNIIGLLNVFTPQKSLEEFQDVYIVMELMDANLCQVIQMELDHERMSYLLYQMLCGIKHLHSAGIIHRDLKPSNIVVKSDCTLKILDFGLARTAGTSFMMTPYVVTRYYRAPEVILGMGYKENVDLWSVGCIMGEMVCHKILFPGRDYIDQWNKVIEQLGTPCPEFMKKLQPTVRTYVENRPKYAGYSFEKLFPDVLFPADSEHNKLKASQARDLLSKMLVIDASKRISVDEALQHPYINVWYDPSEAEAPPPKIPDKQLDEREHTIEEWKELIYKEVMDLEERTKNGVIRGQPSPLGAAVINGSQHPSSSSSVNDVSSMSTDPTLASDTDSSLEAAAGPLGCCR
Chain of Receptor-type tyrosine-protein kinase FLT3 (Homo sapiens) (P36888 whole entry): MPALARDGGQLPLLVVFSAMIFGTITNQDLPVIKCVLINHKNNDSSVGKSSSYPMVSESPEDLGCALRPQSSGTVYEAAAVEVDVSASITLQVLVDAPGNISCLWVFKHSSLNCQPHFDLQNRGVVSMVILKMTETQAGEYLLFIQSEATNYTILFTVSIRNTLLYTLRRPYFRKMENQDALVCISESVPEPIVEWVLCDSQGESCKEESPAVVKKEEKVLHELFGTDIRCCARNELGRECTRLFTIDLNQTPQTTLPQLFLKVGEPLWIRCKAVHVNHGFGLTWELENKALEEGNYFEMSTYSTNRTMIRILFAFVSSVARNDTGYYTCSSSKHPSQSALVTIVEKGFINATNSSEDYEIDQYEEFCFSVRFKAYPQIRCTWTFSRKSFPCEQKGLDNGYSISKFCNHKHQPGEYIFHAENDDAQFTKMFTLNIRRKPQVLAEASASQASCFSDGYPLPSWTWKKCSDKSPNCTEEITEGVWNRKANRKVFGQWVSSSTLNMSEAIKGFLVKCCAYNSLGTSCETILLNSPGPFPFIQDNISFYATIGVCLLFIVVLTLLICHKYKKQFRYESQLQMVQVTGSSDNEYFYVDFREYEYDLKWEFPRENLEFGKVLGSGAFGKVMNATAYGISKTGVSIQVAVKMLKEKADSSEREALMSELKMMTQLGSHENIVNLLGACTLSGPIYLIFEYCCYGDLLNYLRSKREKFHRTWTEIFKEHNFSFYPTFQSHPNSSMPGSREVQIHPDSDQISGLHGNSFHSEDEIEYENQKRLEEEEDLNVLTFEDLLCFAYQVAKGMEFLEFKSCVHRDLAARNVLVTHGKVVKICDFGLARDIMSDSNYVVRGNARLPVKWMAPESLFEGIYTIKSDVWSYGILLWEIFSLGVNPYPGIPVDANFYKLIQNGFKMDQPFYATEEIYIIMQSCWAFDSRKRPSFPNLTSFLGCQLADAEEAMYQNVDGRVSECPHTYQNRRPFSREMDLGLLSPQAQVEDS
Chain of Serine/threonine-protein kinase PAK 1 (Homo sapiens) (Q13153 whole entry): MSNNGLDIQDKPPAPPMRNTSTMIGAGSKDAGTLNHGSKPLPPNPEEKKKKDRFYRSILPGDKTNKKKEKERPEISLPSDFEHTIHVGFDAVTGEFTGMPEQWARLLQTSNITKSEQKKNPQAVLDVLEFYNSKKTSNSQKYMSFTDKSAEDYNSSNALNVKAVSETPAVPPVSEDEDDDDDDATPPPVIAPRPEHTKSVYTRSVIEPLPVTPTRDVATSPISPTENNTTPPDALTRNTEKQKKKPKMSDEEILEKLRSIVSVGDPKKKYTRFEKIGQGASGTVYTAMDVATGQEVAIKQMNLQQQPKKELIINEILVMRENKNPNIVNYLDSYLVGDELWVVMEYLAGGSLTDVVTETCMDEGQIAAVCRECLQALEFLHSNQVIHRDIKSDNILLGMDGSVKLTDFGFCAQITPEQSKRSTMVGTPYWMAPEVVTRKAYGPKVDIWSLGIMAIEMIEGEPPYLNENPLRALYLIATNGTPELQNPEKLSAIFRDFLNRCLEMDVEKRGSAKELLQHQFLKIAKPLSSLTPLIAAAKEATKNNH
Chain of Insulin receptor (Homo sapiens) (P06213 28-758 limits assumed): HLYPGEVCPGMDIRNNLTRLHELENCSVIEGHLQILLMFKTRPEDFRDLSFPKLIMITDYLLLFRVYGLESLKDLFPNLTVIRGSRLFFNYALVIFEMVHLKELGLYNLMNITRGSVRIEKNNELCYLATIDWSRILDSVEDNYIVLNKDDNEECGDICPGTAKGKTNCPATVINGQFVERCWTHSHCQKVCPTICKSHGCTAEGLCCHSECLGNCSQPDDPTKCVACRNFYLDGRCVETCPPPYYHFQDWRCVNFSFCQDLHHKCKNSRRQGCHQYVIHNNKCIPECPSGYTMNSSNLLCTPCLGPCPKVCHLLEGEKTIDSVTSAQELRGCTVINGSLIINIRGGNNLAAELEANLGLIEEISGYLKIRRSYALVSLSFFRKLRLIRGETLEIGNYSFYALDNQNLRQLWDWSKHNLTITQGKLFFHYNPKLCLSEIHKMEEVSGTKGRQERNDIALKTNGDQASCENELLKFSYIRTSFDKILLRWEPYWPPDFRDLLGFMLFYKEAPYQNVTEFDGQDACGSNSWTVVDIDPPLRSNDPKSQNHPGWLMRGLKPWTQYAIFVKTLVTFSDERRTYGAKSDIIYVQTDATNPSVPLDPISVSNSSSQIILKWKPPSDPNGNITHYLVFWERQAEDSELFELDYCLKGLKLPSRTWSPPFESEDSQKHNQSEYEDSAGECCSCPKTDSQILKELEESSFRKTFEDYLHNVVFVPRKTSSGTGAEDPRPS
Chain of Insulin receptor (Homo sapiens) (P06213 763-1382 limits assumed): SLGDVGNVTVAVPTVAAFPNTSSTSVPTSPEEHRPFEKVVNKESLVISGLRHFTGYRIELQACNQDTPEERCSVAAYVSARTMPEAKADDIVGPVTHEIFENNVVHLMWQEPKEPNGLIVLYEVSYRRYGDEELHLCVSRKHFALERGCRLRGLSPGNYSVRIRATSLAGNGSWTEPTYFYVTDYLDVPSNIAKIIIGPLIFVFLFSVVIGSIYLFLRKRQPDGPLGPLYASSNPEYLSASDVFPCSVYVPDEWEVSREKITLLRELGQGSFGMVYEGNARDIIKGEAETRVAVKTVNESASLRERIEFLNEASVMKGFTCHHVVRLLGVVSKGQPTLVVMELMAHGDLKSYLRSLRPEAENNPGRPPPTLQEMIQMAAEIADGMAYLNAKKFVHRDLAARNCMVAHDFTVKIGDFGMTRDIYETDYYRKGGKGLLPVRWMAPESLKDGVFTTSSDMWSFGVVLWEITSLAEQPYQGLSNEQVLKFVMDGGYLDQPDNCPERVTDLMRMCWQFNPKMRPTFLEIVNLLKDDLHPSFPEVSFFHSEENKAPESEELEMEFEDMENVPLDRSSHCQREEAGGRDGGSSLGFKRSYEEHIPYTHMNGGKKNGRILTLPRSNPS
Chain of Platelet-derived growth factor receptor beta (Homo sapiens) (P09619 whole entry): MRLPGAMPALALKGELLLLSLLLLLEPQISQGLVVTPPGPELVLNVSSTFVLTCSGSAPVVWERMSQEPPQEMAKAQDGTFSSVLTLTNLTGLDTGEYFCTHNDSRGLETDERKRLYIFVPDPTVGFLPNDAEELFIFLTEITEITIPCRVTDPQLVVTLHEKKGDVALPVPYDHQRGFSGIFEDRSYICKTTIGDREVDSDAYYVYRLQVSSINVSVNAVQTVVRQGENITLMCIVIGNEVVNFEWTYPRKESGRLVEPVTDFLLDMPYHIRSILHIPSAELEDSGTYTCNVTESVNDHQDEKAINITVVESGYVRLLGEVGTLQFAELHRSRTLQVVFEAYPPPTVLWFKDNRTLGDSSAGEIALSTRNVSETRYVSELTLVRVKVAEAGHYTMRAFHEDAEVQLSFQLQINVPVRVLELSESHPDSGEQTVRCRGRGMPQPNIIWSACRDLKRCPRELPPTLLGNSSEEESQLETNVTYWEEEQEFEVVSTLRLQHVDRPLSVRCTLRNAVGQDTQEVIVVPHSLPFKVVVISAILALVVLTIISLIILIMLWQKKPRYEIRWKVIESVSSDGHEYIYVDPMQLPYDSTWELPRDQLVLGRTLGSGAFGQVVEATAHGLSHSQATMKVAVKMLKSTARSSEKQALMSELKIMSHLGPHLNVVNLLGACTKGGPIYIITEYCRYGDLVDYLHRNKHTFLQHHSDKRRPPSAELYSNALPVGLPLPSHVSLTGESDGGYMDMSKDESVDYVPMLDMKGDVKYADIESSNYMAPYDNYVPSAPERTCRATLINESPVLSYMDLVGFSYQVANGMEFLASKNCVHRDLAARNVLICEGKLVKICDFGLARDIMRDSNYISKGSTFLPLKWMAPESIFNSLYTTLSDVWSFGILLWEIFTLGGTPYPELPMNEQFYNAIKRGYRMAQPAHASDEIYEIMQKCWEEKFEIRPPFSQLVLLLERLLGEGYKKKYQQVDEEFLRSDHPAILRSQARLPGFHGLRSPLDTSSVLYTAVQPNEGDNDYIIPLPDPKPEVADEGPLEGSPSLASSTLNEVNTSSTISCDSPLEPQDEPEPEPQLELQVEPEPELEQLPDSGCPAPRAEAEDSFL

- Activity [1]: 77.2%
- inhibition [3]: 1%
- inhibition [4]: 93%
- inhibition [5]: 8%
- inhibition [6]: 25%
- inhibition [7]: 5%
- inhibition [8]: 8%
- inhibition [9]: 10%
- inhibition [10]: 0%
- inhibition [11]: 12%
- inhibition [12]: 8%
- Activity [13]: 2.72%
- inhibition [14]: 0%
- inhibition [15]: 2%
- IC50 [16]: 650 nM
- inhibition [17]: 6%
- inhibition [18]: 4%
- inhibition [19]: 0%
- inhibition [20]: 0%
- inhibition [22]: 0%
- inhibition [23]: 5%
Compound: Cn1c(=O)c(Oc2ccc(F)cc2F)cc2cnc(NC3CCN(S(C)(=O)=O)CC3)nc21
- IC50 [2]: > 30000 nM
- inhibition [21]: 2%
